Data from patent US12448394B2, “Heterocyclic pyrazole derivatives as type III receptor tyrosine kinase inhibitors” (DEVELOPMENT CENTER FOR BIOTECHNOLOGY, priority 2019, dated 2025).
Where two headings read alike, the source gives them in different places.

Experiments:
[1] = test system: MV4-11 human acute myeloid leukemia cell with FLT3-ITD mutation; assay: MV4-11 cell proliferation assay (CellTiter 96); assay type: cell-based; details: MV4-11 cells, 72 hours treatment, CellTiter96, read-out: anti-proliferation activity MV4-11 (FLT3-ITD), IC50 ranking
Method: (§1) Inhibitions of cell growths by compounds were measured using CellTiter™-96 assay. The cytotoxicities of compounds of the invention were evaluated in cell line panels with different signaling pathway dependencies, including MV4-11 human acute myeloid leukemia cell with FLT3-ITD mutation, Molm-14 human acute myeloid leukemia cell with FLT3-ITD mutation, THP-1 human acute monocytic leukemia cell with NRAS G12D mutation, A375 melanoma cell with BRAF V600E mutation, and HCC827 NSCLC cell with EGFR exon 19 deletion mutation.
The compounds disclosed herein were tested in MV4-11 cell proliferation assay to determine their cellular potencies against FLT3 signal pathway dependent cell growths. MV4-11 cells are human acute myeloid leukemia (AML) cells harboring ligand-independent FLT3-ITD activating mutation, which renders the abnormal proliferation of AML cells FLT3 signaling pathway dependent. Inhibition of FLT3 kinase activity will result in reduced growths and/or cell deaths. MV4-11 cells (catalog #CRL-9591) were obtained from the American Type Culture Collection (ATCC, Manassas, VA). Briefly, cells were grown in IMDM medium supplemented with 10% heat inactivated fetal bovine serum and incubated at 37° C. in 5% CO2 atmosphere. Cells were allowed to expand until reaching saturation, at which point they were sub-cultured or harvested for assay use.
(§2) MV4-11, Molm-14, THP-1, A375, and HCC827 cells were seeded into 96-well plates at 6500, 25000, 5000, 2000 and 8000 cells/well, respectively, and incubated at 37° C., 5% CO2 overnight. Then, these seeded cells were treated with increasing concentrations of the test compounds and incubated for another 72 hours. At the end of the incubation, CellTiter96® AQueous One Solution Reagent (Promega, […]) was added and incubated for the additional 2˜4 hours. Cell viability was determined by measuring absorbance at 490 nm using EMax® microplate reader (Molecular Devices, San Jose, CA, USA).

[2] = test system: Molm-14 human acute myeloid leukemia cell with FLT3-ITD mutation; assay: Molm-14 cell proliferation assay (CellTiter 96); assay type: cell-based; details: Molm-14 cells, 72 hours treatment, CellTiter96, read-out: anti-proliferation activity Molm-14 (FLT3-ITD), IC50 ranking
Method: as §1
The compounds disclosed herein were tested in Molm-14 cell proliferation assay to determine their cellular potencies against FLT3 signal pathway dependent cell growths. Molm-14 cells are human acute myeloid leukemia (AML) cells harboring ligand-independent FLT3-ITD activating mutation, which renders the abnormal proliferation of the AML cells FLT3 signaling pathway dependent. Inhibition of FLT3 kinase activity will result in reduced growths and/or cell deaths. […] Briefly, cells were grown in RPMI 1640 medium supplemented with 10% heat inactivated fetal bovine serum and incubated at 37° C. in 5% CO2 atmosphere. Cells were allowed to expand until reaching saturation, at which point they were sub-cultured or harvested for assay use.
as §2

FLT3-D835Y mutant kinase = target: T1, FLT3-D835Y mutant kinase (Homo sapiens, UniProt P36888, D835Y); assay: FLT3-D835Y mutant kinase assay (AlphaScreen); assay type: biochemical; details: read-out: Ranking of IC50 values, FLT3-D835Y
T1 construct: purchased SignalChem
T1 sequence (P36888 27-993 D835Y): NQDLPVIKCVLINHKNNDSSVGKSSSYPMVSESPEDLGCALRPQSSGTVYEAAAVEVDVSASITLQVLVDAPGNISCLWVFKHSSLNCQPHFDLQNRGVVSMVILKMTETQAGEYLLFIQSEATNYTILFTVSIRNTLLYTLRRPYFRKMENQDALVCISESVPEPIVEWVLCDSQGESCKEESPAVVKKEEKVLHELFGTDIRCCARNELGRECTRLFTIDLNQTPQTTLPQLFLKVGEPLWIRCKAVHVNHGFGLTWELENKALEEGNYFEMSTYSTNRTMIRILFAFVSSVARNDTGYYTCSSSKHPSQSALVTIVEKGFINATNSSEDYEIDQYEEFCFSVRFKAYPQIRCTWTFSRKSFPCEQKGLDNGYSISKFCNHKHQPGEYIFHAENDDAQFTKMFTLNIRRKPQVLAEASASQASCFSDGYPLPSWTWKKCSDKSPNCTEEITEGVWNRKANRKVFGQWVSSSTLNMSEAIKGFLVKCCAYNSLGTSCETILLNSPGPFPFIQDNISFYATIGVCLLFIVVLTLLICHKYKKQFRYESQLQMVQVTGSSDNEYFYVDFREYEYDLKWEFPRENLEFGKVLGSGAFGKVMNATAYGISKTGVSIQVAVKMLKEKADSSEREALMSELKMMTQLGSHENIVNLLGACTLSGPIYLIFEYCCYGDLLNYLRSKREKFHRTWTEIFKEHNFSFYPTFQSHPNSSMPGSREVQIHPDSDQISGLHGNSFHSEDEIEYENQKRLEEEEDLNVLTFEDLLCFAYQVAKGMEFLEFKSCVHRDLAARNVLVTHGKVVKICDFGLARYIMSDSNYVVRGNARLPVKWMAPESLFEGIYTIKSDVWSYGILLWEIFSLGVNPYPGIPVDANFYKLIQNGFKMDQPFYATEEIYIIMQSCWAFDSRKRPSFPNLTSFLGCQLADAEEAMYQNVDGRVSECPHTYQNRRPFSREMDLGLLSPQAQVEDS
How it was run: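 AlphaScreen readout of biotin-poly(Glu4:Tyr1) phosphorylation by 1 ng recombinant FLT3-D835Y. Conditions were 10 μM ATP, 10 mM MgCl2, MOPS pH 7.0, 30 min at 30 °C, EDTA stop. Compounds were serially diluted in duplicate to derive IC50.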

| SMILES | IC50 ([1]; Homo sapiens, MV4-11, 72 h) | IC50 ([2]; Homo sapiens) | IC50 (FLT3-D835Y mutant kinase) | IC50 [1] | IC50 [2] |
| --- | --- | --- | --- | --- | --- |
| C[C@@H]1CN(C(=O)c2ccc(-c3cc4c(s3)Cc3c(-c5ccc6cnn(C)c6c5)n[nH]c3-4)cc2)C[C@H](C)O1 [Compound 19, ((2S,6R)-2,6-dimethyl-morpholino)(4-(3-(1-methyl-1H-indazol-6-yl)-1,4-dihydrothieno[2′,3′:4,5]cyclopenta[1,2-c]pyrazol-6-yl)phenyl)methanone] | < 30 nM | < 30 nM | 1 to 10 nM | – | – |
| CC(c1ccc(-c2cc3c(s2)Cc2c(-c4ccc5cnn(C)c5c4)n[nH]c2-3)cc1)N1CCOCC1 (stereo not drawn) [Compound 20, 4-(1-(4-(3-(1-methyl-1H-indazol-6-yl)-1,4-dihydro-thieno[2′,3′:4,5]cyclopenta [1,2-c]pyrazol-6-yl)phenyl)ethyl)morpholine] | < 30 nM | 30 to 100 nM | 1 to 10 nM | – | – |
| Cn1ncc2ccc(-c3n[nH]c4c3Cc3sc(-c5ccc(C(=O)N6CCOCC6)cc5)cc3-4)cc21 [Compound 21, (4-(3-(1-methyl-1H-indazol-6-yl)-1,4-dihydro-thieno[2′,3′:4,5]cyclopenta [1,2-c]pyrazol-6-yl)phenyl) (morpholino)methanone] | < 30 nM | < 30 nM | < 1 nM | – | – |
| Cn1ncc2ccc(-c3n[nH]c4c3Cc3sc(-c5ccc(CCN6CCOCC6)cc5)cc3-4)cc21 [Compound 22, 4-(4-(3-(1-methyl-1H-indazol-6-yl)-1,4-dihydro-thieno[2′,3′:4,5]cyclopenta [1,2-c]pyrazol-6-yl)phenethyl)morpholine] | < 30 nM | 30 to 100 nM | 1 to 10 nM | – | – |
| Cn1ncc2ccc(-c3n[nH]c4c3Cc3sc(-c5ccc(C(=O)N6CCOCC6)nc5)cc3-4)cc21 [Compound 23, (5-(3-(1-methyl-1H-indazol-6-yl)-1,4-dihydro-thieno[2′,3′:4,5]cyclopenta [1,2-c]pyrazol-6-yl)pyridin-2-yl)(morpholino) methanone] | < 30 nM | 30 to 100 nM | < 1 nM | – | – |
| COc1cc(-c2cc3c(s2)Cc2c(-c4ccc5cnn(C)c5c4)n[nH]c2-3)ccc1CN1CCOCC1 [Compound 24, 4-(2-methoxy-4-(3-(1-methyl-1H-indazol-6-yl)-1,4-dihydrothieno[2′,3′:4,5]cyclopenta[1,2-c]pyrazol-6-yl)benzyl)morpholine] | < 30 nM | 30 to 100 nM | < 1 nM | – | – |
| Cn1ncc2ccc(-c3n[nH]c4c3Cc3sc(-c5ccc(CN6CCOCC6)c(F)c5)cc3-4)cc21 [Compound 25, 4-(2-fluoro-4-(3-(1-methyl-1H-indazol-6-yl)-1,4-dihydrothieno[2′,3′:4,5]cyclopenta[1,2-c]pyrazol-6-yl)benzyl)morpholine] | < 30 nM | 30 to 100 nM | 1 to 10 nM | – | – |
| Cc1cc(-c2cc3c(s2)Cc2c(-c4ccc5cnn(C)c5c4)n[nH]c2-3)ccc1CN1CCOCC1 [Compound 26, 4-(2-methyl-4-(3-(1-methyl-1H-indazol-6-yl)-1,4-dihydrothieno[2′,3′:4,5]cyclopenta[1,2-c]pyrazol-6-yl)benzyl)morpholine] | 100 to 300 nM | 100 to 300 nM | 1 to 10 nM | – | – |
| Cn1ncc2ccc(-c3n[nH]c4c3Cc3sc(-c5ccc(CN6CCOCC6)c(C(F)(F)F)c5)cc3-4)cc21 [Compound 27, 4-(4-(3-(1-methyl-1H-indazol-6-yl)-1,4-dihydrothieno[2′,3′:4,5]cyclopenta[1,2-c]pyrazol-6-yl)-2-(trifluoromethyl)benzyl)morpholine] | 300 to 1000 nM | 1000 to 10000 nM | 1 to 10 nM | – | – |
| CCC(c1ccc(-c2cc3c(s2)Cc2c(-c4ccc5cnn(C)c5c4)n[nH]c2-3)cc1)N1CCOCC1 (stereo not drawn) [Compound 28, 4-(1-(4-(3-(1-methyl-1H-indazol-6-yl)-1,4-dihydro-thieno[2′,3′:4,5]cyclopenta [1,2-c]pyrazol-6-yl)phenyl)propyl)morpholine] | 30 to 100 nM | 30 to 100 nM | 1 to 10 nM | – | – |
| COc1cc(CN2CCOCC2)ccc1-c1cc2c(s1)Cc1c(-c3ccc4cnn(C)c4c3)n[nH]c1-2 [Compound 29, 4-(3-methoxy-4-(3-(1-methyl-1H-indazol-6-yl)-1,4-dihydrothieno [2′,3′:4,5]cyclopenta[1,2-c]pyrazol-6-yl)benzyl) morpholine] | < 30 nM | 30 to 100 nM | < 1 nM | – | – |
| Cn1ncc2ccc(-c3n[nH]c4c3Cc3sc(-c5cncc(C(=O)N6CCOCC6)c5)cc3-4)cc21 [Compound 31, (5-(3-(1-methyl-1H-indazol-6-yl)-1,4-dihydrothieno[2′,3′:4,5]cyclopenta[1,2-c]pyrazol-6-yl)pyridin-3-yl) (morpholino)methanone] | < 30 nM | < 30 nM | < 1 nM | – | – |
| Cn1ncc2ccc(-c3n[nH]c4c3Cc3sc(-c5ccc(CN6CCOCC6)cc5F)cc3-4)cc21 [Compound 32, 4-(3-fluoro-4-(3-(1-methyl-1H-indazol-6-yl)-1,4-dihydrothieno [2′,3′:4,5]cyclopenta [1,2-c]pyrazol-6-yl)benzyl)morpholine] | 30 to 100 nM | 100 to 300 nM | < 1 nM | – | – |
| Cc1ccc(-c2cc3c(s2)Cc2c(-c4ccc5cnn(C)c5c4)n[nH]c2-3)cn1 [Compound 33, 3-(1-methyl-1H-indazol-6-yl)-6-(6-methylpyridin-3-yl)-1,4-dihydrothieno [2′,3′:4,5]cyclopenta [1,2-c]pyrazole] | – | – | < 1 nM | 30 to 100 nM | 30 to 100 nM |
| Cn1ncc2ccc(-c3n[nH]c4c3Cc3sc(-c5ccc(C(=O)N6CCCCC6)cc5)cc3-4)cc21 [Compound 34, (4-(3-(1-methyl-1H-indazol-6-yl)-1,4-dihydro-thieno[2′,3′:4,5]cyclopenta [1,2-c]pyrazol-6-yl)phenyl)(piperidin-1-yl) methanone] | 30 to 100 nM | 30 to 100 nM | 1 to 10 nM | – | – |
| CC(C)Cn1ncc2ccc(-c3n[nH]c4c3Cc3sc(-c5ccc(CN6CCOCC6)cc5)cc3-4)cc21 [Compound 35, 4-(4-(3-(1-isobutyl-1H-indazol-6-yl)-1,4-dihydro-thieno[2′,3′:4,5]cyclopenta [1,2-c]pyrazol-6-yl)benzyl)morpholine] | 100 to 300 nM | 100 to 300 nM | 1 to 10 nM | – | – |
